Values quoted from earlier work, collected in US20250213563A1, “SUBSTITUTED PYRIMIDIN-4(3H)-ONES FOR USE IN TREATING CANCER” (NAVIRE PHARMA, INC., priority 2021, published 2025).
“Also recorded” adds a separate entry of the source.

Experiments:
pERK in tumors = details: at ≥20 mg daily; cited from earlier work
[1] = cited from earlier work
DUSP6 mRNA in tumors = details: at ≥20 mg daily; cited from earlier work

| SMILES | Human PD: pERK inhibition in half of tumors analyzed (pERK in tumors) [% pERKinhibition] | most common AEs ([1]; Human DLTs) | patients in whom AEs lead to dose interruption ([1]; Human DLTs) | Human Half life ([1]; comparator SHP2 inhibitors) [h] | Human PD: DUSP6 mRNA inhibition in tumors (DUSP6 mRNA in tumors) [% DUSP6 mRNA] | Human DLTs ([1]; comparator SHP2 inhibitors) |
| --- | --- | --- | --- | --- | --- | --- |
| Cc1nc(N2CCC3(CC2)CO[C@@H](C)[C@H]3N)c(CO)nc1Sc1ccnc(N)c1Cl [RMC-4630] | >30 | patients; diarrhea,; also recorded: thrombocytopenia,; also recorded: edema are most | interruption in 50% | 28 to 33 | – | – |
| C[C@@H]1OCC2(CCN(c3cnc(Sc4ccnc(N)c4Cl)c(N)n3)CC2)[C@@H]1N [TNO-155] | – | – | – | 35 | >50 | LVEF decrease, liver; also recorded: enzyme elevation,; also recorded: diarrhea |
